Assay results published in US20190029960A1, “Therapeutic Nanoparticles Having EGFR Ligands and Methods of Making and Using Same” (Pfizer Inc., priority 2016, published 2019).
*1 amine or outer side, *2 acyl side, *3 side chain or, on linkers, in order; H or OH if unused. Where a SMILES comes first, the peptide text is derived from it. Bridges are numbered along the chain shown (N, C = ends). Side-chain parts run from the residue outwards. [ ]: non-standard residue; d: D form. The star is where a group is joined. Trp(5-OMe) = COc1ccc2[nH]cc(C[C@H](N)C(=O)O)c2c1; DBCO = C1#Cc2ccccc2N(*)Cc2ccccc21; Igl = N[C@H](C(=O)O)C1Cc2ccccc2C1; PEG5 = NCCOCCOCCOCCOCCOCCC(=O)O; Suc = O=C(CCC(=O)[*:2])[*:1]; Pra = C#CC[C@H](N)C(=O)O; Dap = NC[C@H](N)C(=O)O; Acm = CC(=O)NC*

Biological target: T1, Fc tagged recombinant human EGFR (rhEGFR-Fc) (Homo sapiens, UniProt P00533)
T1 construct: purchased R&D Systems 344-ER-050
Assay type: binding
Conditions: for KD/P2 KD: Table 13, point mutations; for Result: Table 14, relative affinity compared to KD of parent P2 (FIG. 16); for KD: Table 6, TGF fragments
Method: Surface plasmon resonance (SPR) binding studies were carried out on a Biacore T200 instrument (GE Healthcare). Approximately 10,000 RU of anti-Fc antibody (GE Healthcare, Cat #BR100839) was immobilized via amine coupling on each of flow cells 1 and 2 of a CM5 dextran-coated gold sensor chip (GE Healthcare, Cat #BR100530). […] The contact time and resulting amount of rhEGFR-Fc capture was varied based on the nature of the analyte, namely whether it was a peptide or nanoparticle.
Peptide binding assays were carried out in 10 mM PBS buffer supplemented with 0.05% surfactant P20 and 5% DMSO by volume, at 25° C. Peptides were injected over the rhEGFR-Fc surface for 60 s, followed by dissociation (buffer injection) for 60 s and regeneration with a 10 s pulse of 3M MgCl2. A fresh rhEGFR-Fc surface was generated for each concentration of each peptide tested. Peptide binding data was analyzed by fitting to a 1:1 Langmuir kinetic model to obtain the on-rate (ka), off-rate (kd) and/or equilibrium binding constant (KD) of the interaction.

## CC(=O)N[C@@H](CC(=O)O)C(=O)N[C@@H](C)C(=O)N[C@H]1CSSC[C@@H](C(=O)N[C@@H](CC(C)C)C(=O)N[C@@H](CCC(N)=O)C(=O)NCC(=O)NCC(=O)N[C@@H](CCCCNC(=O)CCOCCOCCOCCOCCOCCNC(=O)CCC(=O)N2Cc3ccccc3C#Cc3ccccc32)C(N)=O)NC(=O)[C@H](CCC(=O)O)NC(=O)[C@H](CCCNC(=N)N)NC(=O)CNC(=O)[C@H](Cc2c[nH]c3ccccc23)NC(=O)[C@H](C(C)C)NC(=O)[C@H](CCC(=O)O)NC(=O)[C@H](Cc2c[nH]c3ccccc23)NC(=O)[C@H]([C@@H](C)O)NC1=O [Peptide P2-2]
  binding of free peptide to EGFR by SPR, in words: improved affinity relative to the parent peptide

## C#CC[C@H](NC(=O)CNC(=O)CNC(=O)[C@H](CCC(N)=O)NC(=O)[C@H](CC(C)C)NC(=O)[C@@H]1CSSC[C@H](NC(=O)[C@@H]2CCCN2C(=O)[C@@H](N)CC(=O)O)C(=O)N[C@@H]([C@@H](C)O)C(=O)N[C@@H](Cc2ccccc2)C(=O)N[C@@H](CCC(=O)O)C(=O)N[C@@H](C(C)C)C(=O)N[C@@H](Cc2c[nH]c3ccccc23)C(=O)NCC(=O)N[C@@H](CCCNC(=N)N)C(=O)N[C@@H](CCC(=O)O)C(=O)N1)C(=O)NCC(N)=O [Peptide P2-29] (H-DPCTFEVWGRECLQGG[Pra]G-NH2; disulfide 3-12)
  KD/P2 KD: 9.24

## CC(=O)N[C@@H](CC(=O)O)C(=O)N1CCC[C@H]1C(=O)N[C@@H]1C(=O)N[C@@H]([C@@H](C)O)C(=O)N[C@@H](Cc2c[nH]c3ccccc23)C(=O)N[C@@H](CCC(=O)O)C(=O)N[C@@H](C(C)C)C(=O)N[C@@H](Cc2c[nH]c3ccccc23)C(=O)NCC(=O)N[C@@H](CCCNC(=N)N)C(=O)N[C@@H](CCC(=O)O)C(=O)N[C@H](C(=O)N[C@@H](CC(C)C)C(=O)N[C@@H](CCC(N)=O)C(=O)NCC(=O)NCC(=O)N[C@@H](CCCCNC(=O)CCOCCOCCOCCOCCOCCNC(=O)CCC(=O)N2Cc3ccccc3C#Cc3ccccc32)C(N)=O)C(C)(C)SSC1(C)C [Peptide P2-55]
  binding of free peptide to EGFR by SPR, in words: improved affinity relative to the parent peptide
  Result: 1.18

## COc1ccc2[nH]cc(C[C@@H]3NC(=O)[C@H](C(C)C)NC(=O)[C@H](CCC(=O)O)NC(=O)[C@H](C4Cc5ccccc5C4)NC(=O)[C@H]([C@@H](C)O)NC(=O)[C@@H](NC(=O)[C@@H]4CCCN4C(=O)[C@H](CC(=O)O)NC(C)=O)CSSC[C@@H](C(=O)N[C@@H](CC(C)C)C(=O)N[C@@H](CCC(N)=O)C(=O)NCC(=O)NCC(=O)N[C@@H](CCCCNC(=O)CCOCCOCCOCCOCCOCCNC(=O)CCC(=O)N4Cc5ccccc5C#Cc5ccccc54)C(N)=O)NC(=O)[C@H](CCC(=O)O)NC(=O)[C@H](CCCNC(=N)N)NC(=O)CNC3=O)c2c1 [Peptide P2-102] (Ac-DPCT[Igl]EV[Trp(5-OMe)]GRECLQGGK([PEG5-Suc-DBCO])-NH2; disulfide 3-12)
  binding of free peptide to EGFR by SPR, in words: improved affinity relative to the parent peptide

## C#CC[C@H](NC(=O)CN)C(=O)NCC(=O)NCC(=O)N[C@@H](C)C(=O)N[C@@H](CC(=O)O)C(=O)N[C@@H](CC(C)C)C(=O)N[C@@H](CC(C)C)C(=O)N[C@@H](C)C(=O)N[C@H](C(=O)N[C@H](C(=O)N[C@@H](C)C(=O)N[C@@H](C)C(N)=O)C(C)C)C(C)C [TGFf-4] (H-G[Pra]GGADLLAVVAA-NH2)
  KD: No binding

## C#CC[C@H](NC(=O)CN)C(=O)NCC(=O)NCC(=O)N[C@@H](C)C(=O)N[C@@H](CCCNC(=N)N)C(=O)N[C@@H](CS)C(=O)N[C@@H](CCC(=O)O)C(=O)N[C@@H](Cc1c[nH]cn1)C(=O)N[C@@H](C)C(=O)N[C@@H](CC(=O)O)C(=O)N[C@@H](C)C(=O)N[C@@H](CC(=O)O)C(=O)N[C@@H](CC(C)C)C(N)=O [TGFf-5] (H-G[Pra]GGARCEHADADL-NH2)
  KD: No binding

## C#CC[C@H](NC(=O)CN)C(=O)NCC(=O)NCC(=O)N[C@@H](CO)C(=O)NCC(=O)N[C@@H](Cc1ccc(O)cc1)C(=O)N[C@H](C(=O)NCC(=O)N[C@@H](C)C(=O)N[C@@H](CCCNC(=N)N)C(=O)N[C@@H](CS)C(=O)N[C@@H](CCC(=O)O)C(=O)N[C@@H](Cc1c[nH]cn1)C(N)=O)C(C)C [TGFf-6] (H-G[Pra]GGSGYVGARCEH-NH2)
  KD: No binding

## C#CC[C@H](NC(=O)CN)C(=O)NCC(=O)NCC(=O)N[C@@H](C)C(=O)N[C@@H](CSCNC(C)=O)C(=O)N[C@H](C(=O)N[C@@H](CS)C(=O)N[C@@H](Cc1c[nH]cn1)C(=O)N[C@@H](CO)C(=O)NCC(=O)N[C@@H](Cc1ccc(O)cc1)C(=O)N[C@H](C(=O)NCC(N)=O)C(C)C)C(C)C [TGFf-7] (H-G[Pra]GGAC(Acm)VCHSGYVG-NH2)
  KD: No binding

## C#CC[C@H](NC(=O)CN)C(=O)NCC(=O)NCC(=O)N[C@@H](CCC(N)=O)C(=O)N[C@@H](CCC(=O)O)C(=O)N[C@@H](CC(=O)O)C(=O)N[C@@H](CCCCN)C(=O)N1CCC[C@H]1C(=O)N[C@@H](C)C(=O)N[C@@H](CSCNC(C)=O)C(=O)N[C@H](C(=O)N[C@@H](CS)C(=O)N[C@@H](Cc1c[nH]cn1)C(N)=O)C(C)C [TGFf-8, H2N-G-Par-GG-QEDKPAC(Acm)VCH-CONH2] (H-G[Pra]GGQEDKPAC(Acm)VCH-NH2)
  KD: No binding

## C#CC[C@H](NC(=O)CN)C(=O)NCC(=O)NCC(=O)N[C@@H](CS)C(=O)N[C@@H](CCCNC(=N)N)C(=O)N[C@@H](Cc1ccccc1)C(=O)N[C@@H](CC(C)C)C(=O)N[C@H](C(=O)N[C@@H](CCC(N)=O)C(=O)N[C@@H](CCC(=O)O)C(=O)N[C@@H](CC(=O)O)C(=O)N[C@@H](CCCCN)C(=O)N1CCC[C@H]1C(N)=O)C(C)C [TGFf-9] (H-G[Pra]GGCRFLVQEDKP-NH2)
  KD: No binding

## C#CC[C@H](NC(=O)CN)C(=O)NCC(=O)NCC(=O)N[C@@H](CSCNC(C)=O)C(=O)N[C@@H](Cc1ccccc1)C(=O)N[C@@H](Cc1c[nH]cn1)C(=O)NCC(=O)N[C@H](C(=O)N[C@@H](CS)C(=O)N[C@@H](CCCNC(=N)N)C(=O)N[C@@H](Cc1ccccc1)C(=O)N[C@H](C(N)=O)C(C)C)[C@@H](C)O [TGFf-10] (H-G[Pra]GGC(Acm)FHGTCRFV-NH2)
  KD: No binding

## C#CC[C@H](NC(=O)CN)C(=O)NCC(=O)NCC(=O)N[C@@H](CO)C(=O)N[C@@H](Cc1c[nH]cn1)C(=O)N[C@H](C(=O)N[C@@H](CCC(N)=O)C(=O)N[C@@H](Cc1ccccc1)C(=O)N[C@@H](CS)C(=O)N[C@@H](Cc1ccccc1)C(=O)N[C@@H](Cc1c[nH]cn1)C(=O)NCC(=O)N[C@H](C(N)=O)[C@@H](C)O)[C@@H](C)O [TGFf-11] (H-G[Pra]GGSHTQFCFHGT-NH2)
  KD: No binding

## C#CC[C@H](NC(=O)CN)C(=O)NCC(=O)NCC(=O)N[C@@H](CC(N)=O)C(=O)N[C@@H](CC(=O)O)C(=O)N[C@@H](CS)C(=O)N1CCC[C@H]1C(=O)N[C@@H](CC(=O)O)C(=O)N[C@@H](CO)C(=O)N[C@@H](Cc1c[nH]cn1)C(=O)N[C@H](C(=O)N[C@@H](CCC(N)=O)C(=O)N[C@@H](Cc1ccccc1)C(N)=O)[C@@H](C)O [TGFf-12] (H-G[Pra]GGNDCPDSHTQF-NH2)
  KD: No binding

## C#CC[C@H](NC(=O)CN)C(=O)NCC(=O)NCC(=O)N[C@@H](Cc1c[nH]c2ccccc12)C(=O)N[C@@H](CO)C(=O)N[C@@H](Cc1c[nH]cn1)C(=O)N[C@@H](Cc1ccccc1)C(=O)N[C@@H](CC(N)=O)C(=O)N[C@@H](CC(=O)O)C(=O)N[C@@H](CS)C(=O)N1CCC[C@H]1C(=O)N[C@@H](CC(=O)O)C(N)=O [TGFf-13] (H-G[Pra]GGWSHFNDCPD-NH2)
  KD: No binding

## C#CC[C@H](NC(=O)CN)C(=O)NCC(=O)NCC(=O)N[C@@H](C)C(=O)N[C@@H](CCCNC(=N)N)C(=O)N[C@@H](CS)C(=O)N[C@@H](Cc1c[nH]cn1)C(=O)N[C@@H](CCC(=O)O)C(=O)N[C@@H](Cc1c[nH]cn1)C(=O)N[C@@H](C)C(=O)N[C@@H](CC(=O)O)C(=O)N[C@@H](CC(C)C)C(=O)N[C@@H](CC(C)C)C(=O)N[C@@H](C)C(N)=O [TGFf-14] (H-G[Pra]GGARCHEHADLLA-NH2)
  KD: No binding

## H2N-DPCTWEVFGRECLQ-GG-Par-G-CONH2 [Peptide P2-40]
  KD/P2 KD: NS at 100 μM

## H2N-DPCTWEVWARECLQ-GG-Par-G-CONH2 [Peptide P2-41]
  KD/P2 KD: NS at 100 μM

## H2N-G-Par-GG-CPDSHTQFC(Acm)FHGTC-CONH2 (H-G[Pra]GGCPDSHTQFC(Acm)FHGTC-NH2; disulfide 5-18; SMILES C#CC[C@H](NC(=O)CN)C(=O)NCC(=O)NCC(=O)N[C@H]1CSSC[C@@H](C(N)=O)NC(=O)[C@H]([C@@H](C)O)NC(=O)CNC(=O)[C@H](Cc2c[nH]cn2)NC(=O)[C@H](Cc2ccccc2)NC(=O)[C@H](CSCNC(C)=O)NC(=O)[C@H](Cc2ccccc2)NC(=O)[C@H](CCC(N)=O)NC(=O)[C@H]([C@@H](C)O)NC(=O)[C@H](Cc2c[nH]cn2)NC(=O)[C@H](CO)NC(=O)[C@H](CC(=O)O)NC(=O)[C@@H]2CCCN2C1=O) [TGFf-3]
  KD: Not soluble

## H2N-GDP-Dap-TWEVWGREDLQ-GG-Par-G-CONH2 (H-GDP[Dap]TWEVWGREDLQGG[Pra]G-NH2; lactam 4-13) [Peptide P2-59]
  Result: No binding

## H2N-GDP-Dap-TWEVWGREELQ-GG-Par-G-CONH2 (H-GDP[Dap]TWEVWGREELQGG[Pra]G-NH2; lactam 4-13) [Peptide P2-63]
  Result: No binding
